Reference: patent US5328902A, “7-(substituted)-9-[(substituted glycyl)amido]-6-demethyl-6-deoxytetracyclines” (American Cyanamid Co., priority 1992, dated 1994)

Assays:
E. coli UBMS 88-1 Tet B = test: microbe, parasite or virus in culture; assay type: cell-based; conditions: E. coli UBMS 88-1 Tet B; 18 hours at 35° C.
E. coli J3272 Tet sens. = test: MIC, agar dilution; assay type: cell-based
E. coli PRP1 Tet A = test: microbe, parasite or virus in culture; assay type: cell-based; conditions: E. coli PRP1 Tet A
[1] = system: E. coli MC 4100 TNIOC Tet B; test: microbe, parasite or virus in culture; assay type: cell-based; conditions: E. coli MC 4100 TNIOC Tet B
E. coli J3272 Tet C = test: microbe, parasite or virus in culture; assay type: cell-based; conditions: E. coli J3272 Tet C
E. coli UBMS 89-1 Tet M = test: microbe, parasite or virus in culture; assay type: cell-based; conditions: E. coli UBMS 89-1 Tet M
[2] = system: E. coli UBMS 89-2 Tet sens.; test: MIC, agar dilution; assay type: cell-based; conditions: E. coli UBMS 89-2 Tet sens.
E. coli J2175 = test: MIC, agar dilution; assay type: cell-based; conditions: E. coli J2175
E. coli BAJ9003 IMP MUT = test: microbe, parasite or virus in culture; assay type: cell-based; conditions: E. coli BAJ9003 IMP MUT
E. coli UBMS 90-4 Tet M = test: microbe, parasite or virus in culture; assay type: cell-based; conditions: E. coli UBMS 90-4 Tet M
E. coli UBMS 90-5 = test: MIC, agar dilution; assay type: cell-based
E. coli #311 (MP) = test: MIC, agar dilution; assay type: cell-based; conditions: E. coli #311 (MP)
E. coli ATCC 25922 = test: MIC, agar dilution; assay type: cell-based; conditions: E. coli ATCC 25922
E. coli J3272 Tet D = test: microbe, parasite or virus in culture; assay type: cell-based; conditions: E. coli J3272 Tet D
S. mariescens FPOR 8733 = test: MIC, agar dilution; assay type: cell-based
[3] = system: Ps. acruginosa ATCC 27853; test: MIC, agar dilution; assay type: cell-based; conditions: Ps. acruginosa ATCC 27853
S. aureus NEMC 8769 = test: MIC, agar dilution; assay type: cell-based; conditions: S. aureus NEMC 8769
S. aureus UBMS 88-4 = test: MIC, agar dilution; assay type: cell-based; conditions: S. aureus UBMS 88-4
[4] = system: S. aureus UBMS 88-5 Tet M; test: microbe, parasite or virus in culture; assay type: cell-based; conditions: S. aureus UBMS 88-5 Tet M
[5] = system: S. aureus UBMS 88-7 Tet K; test: microbe, parasite or virus in culture; assay type: cell-based; conditions: S. aureus UBMS 88-7 Tet K
[6] = system: S. aureus UBMS 90-1 Tet M; test: microbe, parasite or virus in culture; assay type: cell-based; conditions: S. aureus UBMS 90-1 Tet M
S. aureus UBMS 90-3 = test: MIC, agar dilution; assay type: cell-based; conditions: S. aureus UBMS 90-3
S. aureus IVES 2943 = test: MIC, agar dilution; assay type: cell-based; conditions: S. aureus IVES 2943
S. aureus ROSE (MP) = test: MIC, agar dilution; assay type: cell-based; conditions: S. aureus ROSE (MP)
S. aureus IVES 1 983 = test: MIC, agar dilution; assay type: cell-based; conditions: S. aureus IVES 1 983
S. aureus ATCC 29213 = test: MIC, agar dilution; assay type: cell-based; conditions: S. aureus ATCC 29213
[7] = system: S. hemolyticus AVHAH 88-3; test: MIC, agar dilution; assay type: cell-based; conditions: S. hemolyticus AVHAH 88-3
Enterococcus 12201 = test: MIC, agar dilution; assay type: cell-based; conditions: Enterococcus 12201
the ribosome = test: Reversibility of binding: bacterial growth resumes after washing; assay type: cell-based; conditions: bacterial growth resumes when the compound is removed from the cultures by washing
Description: Therefore, the ability of these compounds to inhibit bacterial growth appears to be a direct consequence of its ability to inhibit protein synthesis at the ribosome level.

[8] = system: tetracycline sensitive and resistant Gram-positive and Gram-negative bacteria; test: In vitro antibacterial activity, summary in words of Table I; assay type: cell-based
[9] = system: Wild Type S30 (wild type ribosomes, E. coli strain MRE600, tetracycline sensitive); test: E. coli in vitro protein translation system, wild type S30; conditions: for inhibition of protein synthesis occuring on wild type ribosomes: coupled transcription and translation system
[10] = system: S. aureus UBMS 90-2 Tet M; test: microbe, parasite or virus in culture; assay type: cell-based; conditions: S. aureus UBMS 90-2 Tet M
S. aureus SMITH (MP) = test: MIC, agar dilution; assay type: cell-based; conditions: S. aureus SMITH (MP)
E. faecalis ATCC 29212 = test: MIC, agar dilution; assay type: cell-based; conditions: E. faecalis ATCC 29212

Substance	MIC (E. coli J3272 Tet sens.) [µg/mL]	MIC (E. coli PRP1 Tet A) [µg/mL]	MIC [1] [µg/mL]	MIC (E. coli J3272 Tet C) [µg/mL]	MIC (E. coli UBMS 89-1 Tet M) [µg/mL]	MIC [2] [µg/mL]	MIC (E. coli J2175) [µg/mL]	MIC (E. coli UBMS 90-4 Tet M) [µg/mL]	MIC (E. coli UBMS 90-5) [µg/mL]	MIC (E. coli #311 (MP)) [µg/mL]	MIC (E. coli ATCC 25922) [µg/mL]	MIC (E. coli J3272 Tet D) [µg/mL]	MIC (S. mariescens FPOR 8733) [µg/mL]	MIC [3] [µg/mL]	MIC (S. aureus NEMC 8769) [µg/mL]	MIC (S. aureus UBMS 88-4) [µg/mL]	MIC [4] [µg/mL]	MIC [5] [µg/mL]	MIC [6] [µg/mL]	MIC (S. aureus UBMS 90-3) [µg/mL]	also measured
[4S-(4alpha,12aalpha)]-4,7-Bis(dimethylamino)-1,4,4a,5,5a,6,11,12a-octahydro-3,10, 12,12a-tetrahydroxy-1,11-dioxo-9-[[(2-propenylamino)acetyl]amino]-2-naphthacenecarboxamide dihydrochloride	0.5	8	1	1	0.5	0.5	0.5	0.5	0.5	0.5	0.5	0.25	8	16	0.12	0.25	0.25	8	0.5	0.25	MIC (E. coli UBMS 88-1 Tet B): 1 µg/mL; MIC (E. coli BAJ9003 IMP MUT): 0.12 µg/mL; MIC (S. aureus IVES 2943): 8 µg/mL; MIC (S. aureus ROSE (MP)): 8 µg/mL; MIC (S. aureus IVES 1 983): 8 µg/mL; MIC (S. aureus ATCC 29213): 0.25 µg/mL; MIC [7]: 0.5 µg/mL; MIC (Enterococcus 12201): 0.25 µg/mL; reversibility of binding to the ribosome (the ribosome): bind reversibly; activity against E. coli tetA, E. coli tetC and E. coli tetD [8]: good activity; in vitro activity against tetracycline resistant strains containing tetM and tetB resistance determinants ([8]; S. aureus UBMS 88-5, 90-1, 90-2, E. coli UBMS 89-1, 90-4, 88-1, TN10C tetB): excellent; activity against recently isolated bacteria from clinical sources compared with minocycline ([8]; clinical isolates): superior to that of minocycline; activity against susceptible strains compared with minocycline ([8]; susceptible strains): equallyas effective as minocycline; % Inhibition Wild Type S30 ([9]; Conc. 0.06 mg/ml): 93%; % Inhibition Wild Type S30 ([9]; Conc. 1.0 mg/ml): 99%; inhibition of protein synthesis occuring on wild type ribosomes [9]: effectively inhibit protein synthesis
[4S-(4alpha,12aalpha)]-4,7-Bis(dimethylamino)-1,4,4a,5,5a,6,11,12a-octahydro-3,10, 12,12a-tetrahydroxy-9-[[[(3-methoxypropyl)amino]acetyl]amino]-1,11-dioxo-2-naphthacenecarboxamide dihydrochloride	1	4	2	1	2	1	1	1	1	1	1	0.5	16	32	0.25	1	0.5	8	2	0.5	MIC (E. coli BAJ9003 IMP MUT): 0.12 µg/mL; MIC [10]: 0.5 µg/mL; MIC (S. aureus IVES 2943): 16 µg/mL; MIC (S. aureus ROSE (MP)): 16 µg/mL; MIC (S. aureus SMITH (MP)): 0.5 µg/mL; MIC (S. aureus IVES 1 983): 16 µg/mL; MIC (S. aureus ATCC 29213): 1 µg/mL; MIC [7]: 2 µg/mL; MIC (Enterococcus 12201): 0.5 µg/mL; MIC (E. faecalis ATCC 29212): 0.25 µg/mL; reversibility of binding to the ribosome (the ribosome): bind reversibly; % Inhibition Wild Type S30 ([9]; Conc. 0.06 mg/ml): 88%; inhibition of protein synthesis occuring on wild type ribosomes [9]: effectively inhibit protein synthesis
[4S-(4alpha,12aalpha)]-4,7-Bis(dimethylamino-1,4,4a,5,5a,6,11,12a-octahydro-3,10, 12,12a-tetrahydroxy-9-[[[(2-(methoxyethyl)amino]acetyl]amino]-1,11-dioxo-2-naphthacenecarboxamide dihydrochloride	2	8	2	4	2	2	2	2	2	2	2	1	> 32	> 32	0.5	0.5	1	16	2	0.5	MIC (E. coli UBMS 88-1 Tet B): 2 µg/mL; MIC [10]: 0.5 µg/mL; MIC (S. aureus IVES 2943): 32 µg/mL; MIC (S. aureus ROSE (MP)): 32 µg/mL; MIC (S. aureus SMITH (MP)): 0.5 µg/mL; MIC (S. aureus IVES 1 983): 32 µg/mL; MIC (S. aureus ATCC 29213): 1 µg/mL; MIC [7]: 2 µg/mL; MIC (Enterococcus 12201): 0.5 µg/mL; reversibility of binding to the ribosome (the ribosome): bind reversibly; % Inhibition Wild Type S30 ([9]; Conc. 0.06 mg/ml): 92%; % Inhibition Wild Type S30 ([9]; Conc. 1.0 mg/ml): 98%; inhibition of protein synthesis occuring on wild type ribosomes [9]: effectively inhibit protein synthesis
[4S-(4alpha,12aalpha)]-9-[[[(2,2-Diethoxyethyl)amino]acetyl]amino]-4,7-bis(dimethylamino)-1,4,4a,5,5a,6,11,12a-octahydro-3,10, 12,12a-tetrahydroxy-1,11-dioxo-2-naphthacenecarboxamide dihydrochloride [Compound C]	8	> 32	8	16	4	8	8	4	8	8	8	4	> 32	> 32	0.25	1	1	8	1	0.5	MIC (E. coli UBMS 88-1 Tet B): 16 µg/mL; MIC (E. coli BAJ9003 IMP MUT): 0.5 µg/mL; MIC [10]: 1 µg/mL; MIC (S. aureus IVES 2943): 8 µg/mL; MIC (S. aureus ROSE (MP)): 16 µg/mL; MIC (S. aureus SMITH (MP)): 0.5 µg/mL; MIC (S. aureus IVES 1 983): 16 µg/mL; MIC (S. aureus ATCC 29213): 1 µg/mL; MIC [7]: 2 µg/mL; MIC (Enterococcus 12201): 1 µg/mL; MIC (E. faecalis ATCC 29212): 0.5 µg/mL; reversibility of binding to the ribosome (the ribosome): bind reversibly; % Inhibition Wild Type S30 ([9]; Conc. 0.06 mg/ml): 88%; % Inhibition Wild Type S30 ([9]; Conc. 1.0 mg/ml): 98%; inhibition of protein synthesis occuring on wild type ribosomes [9]: effectively inhibit protein synthesis
